Each structure is given as a SMILES string. Active and inactive are the calls of the source. The rule behind the calls is not given here.

For 13 molecules, inhibition, Activity and IC50 results are on record in ChEMBL document CHEMBL3997814, “Identification of novel inverse agonists of estrogen-related receptors ERRγ and ERRβ” (Bioorg Med Chem, 2017).

The target of experiment [1] is T1, Estrogen receptor (Homo sapiens) (UniProt P03372).
T1 sequence (whole entry): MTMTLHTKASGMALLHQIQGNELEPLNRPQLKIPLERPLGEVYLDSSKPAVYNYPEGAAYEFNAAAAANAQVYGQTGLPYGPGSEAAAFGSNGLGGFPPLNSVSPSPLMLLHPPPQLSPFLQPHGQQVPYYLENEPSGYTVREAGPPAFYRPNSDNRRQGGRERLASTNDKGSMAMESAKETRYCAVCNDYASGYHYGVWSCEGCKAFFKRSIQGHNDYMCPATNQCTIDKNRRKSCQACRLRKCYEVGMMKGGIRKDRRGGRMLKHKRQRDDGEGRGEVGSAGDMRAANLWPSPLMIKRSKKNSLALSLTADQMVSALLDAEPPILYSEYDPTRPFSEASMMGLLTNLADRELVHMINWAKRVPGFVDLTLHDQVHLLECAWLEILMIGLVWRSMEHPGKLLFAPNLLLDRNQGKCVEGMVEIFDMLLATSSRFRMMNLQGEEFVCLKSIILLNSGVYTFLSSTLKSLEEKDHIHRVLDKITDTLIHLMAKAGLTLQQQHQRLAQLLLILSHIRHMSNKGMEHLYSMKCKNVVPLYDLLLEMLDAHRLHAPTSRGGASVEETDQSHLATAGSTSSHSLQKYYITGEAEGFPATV
In words: Antagonist activity at human ERalpha expressed in African green monkey CV1 cells assessed as decrease in receptor transcriptional activity after 45 hrs by luciferase reporter gene assay. The format is cell-based. For orientation: Reporter assays use an easily measured gene product as a stand-in for the process of interest.

The target in experiment [2] is T2, Steroid hormone receptor ERR1 (Homo sapiens) (UniProt P11474).
T2 sequence (whole entry): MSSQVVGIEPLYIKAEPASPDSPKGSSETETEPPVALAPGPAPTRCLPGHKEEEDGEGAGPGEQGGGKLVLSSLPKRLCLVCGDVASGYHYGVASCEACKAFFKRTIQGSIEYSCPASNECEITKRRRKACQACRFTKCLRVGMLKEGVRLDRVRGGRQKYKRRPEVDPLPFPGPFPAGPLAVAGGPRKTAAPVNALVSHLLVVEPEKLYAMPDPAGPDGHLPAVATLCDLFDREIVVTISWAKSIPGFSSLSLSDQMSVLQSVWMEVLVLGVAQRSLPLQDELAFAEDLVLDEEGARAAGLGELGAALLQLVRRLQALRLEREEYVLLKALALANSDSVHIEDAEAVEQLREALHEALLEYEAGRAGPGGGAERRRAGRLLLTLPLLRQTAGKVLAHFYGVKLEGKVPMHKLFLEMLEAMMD
The experiment is described as follows: Inverse agonist activity at GAL4-DNA binding domain-fused human ERRalpha ligand binding domain expressed in African green monkey CV1 cells assessed as decrease in receptor transcriptional activity at 10 uM after 45 hrs by luciferase reporter gene assay. It counts as cell-based.

Experiment [3] concerns the target Estrogen receptor beta (Homo sapiens) (UniProt Q92731). In words: Inverse agonist activity at human ERbeta expressed in African green monkey CV1 cells assessed as decrease in receptor transcriptional activity up to 3 uM after 45 hrs by luciferase reporter gene assay. The format is cell-based.
In experiment [4] the target is T1, Estrogen receptor (Homo sapiens). The experiment is described as follows: Inverse agonist activity at human ERalpha expressed in African green monkey CV1 cells assessed as decrease in receptor transcriptional activity up to 3 uM after 45 hrs by luciferase reporter gene assay. The format is cell-based.
The target of experiment [5] is T3, Estrogen-related receptor gamma (Mus musculus, UniProt P62509).
T3 sequence (P62509 whole entry): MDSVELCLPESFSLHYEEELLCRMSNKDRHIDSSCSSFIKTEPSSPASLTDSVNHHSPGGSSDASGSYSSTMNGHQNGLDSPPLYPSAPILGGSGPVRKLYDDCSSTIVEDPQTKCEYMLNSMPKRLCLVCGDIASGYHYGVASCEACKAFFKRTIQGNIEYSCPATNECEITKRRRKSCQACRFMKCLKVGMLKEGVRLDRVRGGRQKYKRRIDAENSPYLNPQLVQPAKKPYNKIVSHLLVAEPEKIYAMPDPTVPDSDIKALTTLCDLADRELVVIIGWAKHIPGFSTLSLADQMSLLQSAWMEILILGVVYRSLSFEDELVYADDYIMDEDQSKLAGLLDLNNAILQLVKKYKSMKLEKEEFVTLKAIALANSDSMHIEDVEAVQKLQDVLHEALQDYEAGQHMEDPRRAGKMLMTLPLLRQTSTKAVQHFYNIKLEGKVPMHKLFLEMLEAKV
Description: Inverse agonist activity at GAL4-DNA binding domain-fused mouse ERRgamma ligand binding domain expressed in African green monkey CV1 cells assessed as decrease in receptor transcriptional activity after 45 hrs by luciferase reporter gene assay

The target in experiment [6] is T2, Steroid hormone receptor ERR1 (Homo sapiens). In words: Inverse agonist activity at GAL4-DNA binding domain-fused human ERRalpha ligand binding domain expressed in African green monkey CV1 cells assessed as decrease in receptor transcriptional activity after 45 hrs by luciferase reporter gene assay. It counts as cell-based.

Sequence of Estrogen receptor beta (Homo sapiens) (Q92731 whole entry): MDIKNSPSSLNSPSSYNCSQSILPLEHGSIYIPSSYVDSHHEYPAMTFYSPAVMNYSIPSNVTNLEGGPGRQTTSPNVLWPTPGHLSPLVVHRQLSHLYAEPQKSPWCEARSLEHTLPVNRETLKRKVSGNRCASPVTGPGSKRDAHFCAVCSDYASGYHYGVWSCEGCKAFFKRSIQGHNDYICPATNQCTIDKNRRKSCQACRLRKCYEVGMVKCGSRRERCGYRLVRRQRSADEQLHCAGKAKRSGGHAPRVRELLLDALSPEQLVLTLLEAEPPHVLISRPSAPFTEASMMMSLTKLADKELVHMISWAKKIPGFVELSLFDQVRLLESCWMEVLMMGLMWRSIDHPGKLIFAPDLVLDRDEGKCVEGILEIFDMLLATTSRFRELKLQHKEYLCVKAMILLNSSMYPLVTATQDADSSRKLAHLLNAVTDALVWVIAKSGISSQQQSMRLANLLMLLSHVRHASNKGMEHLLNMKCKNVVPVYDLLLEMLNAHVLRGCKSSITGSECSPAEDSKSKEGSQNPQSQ

As to `CC(=O)Oc1ccc(/C(=C(/c2ccccc2)C(C)C)c2ccc(OCCN(C)C)cc2)cc1`, the inhibition entry in experiment [1] was “Active”. Further, in experiment [2], the result was inactive.
Take `CC(=O)Oc1ccc(/C(=C(\CC(C)CO)c2ccccc2)c2ccc(OCCN(C)C)cc2)cc1` (stereo not given): the outcome in experiment [2] was inactive.
Same read-out and setting: under `CC/C(=C(\c1ccc(O)cc1)c1ccc(OCCN(C)C)cc1)c1ccccc1` stands “inactive”.
`COC(=O)C(C)C/C(=C(\c1ccc(O)cc1)c1ccc(OCCN(C)C)cc1)c1ccccc1` (stereo not given): the result in experiment [3], in experiment [4] and in experiment [2] was inactive.
As for `COC(=O)CC/C(=C(\c1ccc(O)cc1)c1ccc(OCCN(C)C)cc1)c1ccccc1`, the outcome in experiment [3], in experiment [4] and in experiment [2] was inactive.
Consider `CC(CO)C/C(=C(\c1ccc(O)cc1)c1ccc(OCCN(C)C)cc1)c1ccccc1` (stereo not given), for which the outcome in experiment [2] was inactive.
What is called IC50 is the concentration that inhibits the measured activity by half. In turn, `CC(C)C/C(=C(\c1ccc(O)cc1)c1ccc(OCCN(C)C)cc1)c1ccccc1` registered a 50% inhibitory concentration (IC50) in experiment [5] of 1000 nM. Moreover, in experiment [2], the result was inactive.
The like results for `CC(=O)Oc1ccc(/C(=C(\CCCO)c2ccccc2)c2ccc(OCCN(C)C)cc2)cc1` were, in that order, 300 nM and “inactive”.
As for `CC(C)/C(=C(\c1ccc(O)cc1)c1ccc(OCCN(C)C)cc1)c1ccccc1`, the outcome in experiment [2] was inactive.
The same measure, in the same setting: the same measure for `CN(C)CCOc1ccc(/C(=C(/CCCO)c2ccccc2)c2ccc(O)cc2)cc1`: “inactive”.
In the case of `COC(=O)C(C)CC(=C(c1ccc(O)cc1)c1ccc(O)cc1)c1ccccc1` (stereo not given), the result in experiment [2] was inactive.
As for `CC/C(=C(/c1ccc(O)cc1)c1ccc(OCCN(C)C)cc1)c1ccccc1`, the outcome in experiment [6] was inactive.
`COC(=O)CCC(=C(c1ccc(O)cc1)c1ccc(O)cc1)c1ccccc1`: in experiment [2], the result was inactive.
